US20130281467A1, “NOVEL MICROBICIDES” (SYNGENTA PARTICIPATIONS AG, priority 2010, published 2013)

Tests used:
[1] = test system: Blumeria graminis f. Sp. tritici (Erysiphe graminis f. sp. tritici); experiment: Fungicidal activity against Blumeria graminis f. sp. tritici / wheat / leaf disc preventative (powdery mildew on wheat); assay type: in vivo; settings: foliar, wheat leaf segments, inoculated 1 day after application, compared to untreated, read-out: disease control
Summary of the method: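 Wheat cv. Kanzler leaf segments on agar were sprayed with the formulated compound diluted in water and inoculated with powdery mildew 1 day later. Incubation was at 20 °C and 60% rh: 24 h dark, then 12 h light/12 h dark. Percent disease control versus untreated was scored 6–8 days after application.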

[2] = test system: Botryotinia fuckeliana (Botrytis cinerea); experiment: Fungicidal activity against Botryotinia fuckeliana (Botrytis cinerea) / liquid culture (gray mould); assay type: cell-based; settings: 3-4 days after application, read-out: disease control (inhibition of growth, photometrically)
Summary of the method: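 Conidia from cryogenic storage were mixed into Vogels broth and added to wells containing compound in DMSO. Plates incubated at 24 °C; growth inhibition read photometrically 3–4 days after application.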

Gaeumannomyces graminis = experiment: Fungicidal activity against Gaeumannomyces graminis / liquid culture (take-all of cereals); assay type: cell-based; settings: 4-5 days after application, read-out: disease control (inhibition of growth, photometrically)
Summary of the method: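 Cryostored mycelial fragments in potato dextrose broth added to 96-well plates with test compound in DMSO. Plates kept at 24° C; growth inhibition measured photometrically 4-5 days after application.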

[3] = test system: Glomerella lagenarium (Colletotrichum lagenarium); experiment: Fungicidal activity against Glomerella lagenarium (Colletotrichum lagenarium) / liquid culture (anthracnose); assay type: cell-based; settings: Colletotrichum orbiculare, 3-4 days after application, read-out: disease control (inhibition of growth, photometrically)
Summary of the method: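 Cryostored conidia mixed into potato dextrose broth were added to test compound in DMSO. Plates were incubated at 24° C. Growth inhibition was measured photometrically 3-4 days after application.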

[4] = test system: Monographella nivalis (Microdochium nivale); experiment: Fungicidal activity against Monographella nivalis (Microdochium nivale) / liquid culture (foot rot cereals); assay type: cell-based; settings: 4-5 days after application, read-out: disease control (inhibition of growth, photometrically)
Summary of the method: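 Conidia in potato dextrose broth added to microtiter wells holding test compound in DMSO. Incubated at 24° C.; growth inhibition read photometrically 4-5 days after application.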

[5] = test system: Mycosphaerella arachidis (Cercospora arachidicola); experiment: Fungicidal activity against Mycosphaerella arachidis (Cercospora arachidicola) / liquid culture (early leaf spot); assay type: cell-based; settings: 4-5 days after application, read-out: disease control (inhibition of growth, photometrically)
Summary of the method: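 Cryopreserved conidia in potato dextrose broth added to compound in DMSO in microtiter plates. Incubation at 24 °C; growth inhibition read photometrically 4-5 days after application.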

[6] = test system: Mycosphaerella graminicola (Septoria tritici); experiment: Fungicidal activity against Mycosphaerella graminicola (Septoria tritici) / liquid culture (Septoria blotch); assay type: cell-based; settings: Zymoseptoria tritici, 4-5 days after application, read-out: disease control (inhibition of growth, photometrically)
Summary of the method: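 Cryo-stored conidia were suspended in potato dextrose broth and added to test compound dispensed from DMSO solution. Plates were held at 24° C., and growth inhibition was measured photometrically 4-5 days after application.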

[7] = test system: Phaeosphaeria nodorum (Septoria nodorum); experiment: Fungicidal activity against Phaeosphaeria nodorum (Septoria nodorum) / wheat / leaf disc preventative (glume blotch); assay type: in vivo; settings: Parastagonospora nodorum, foliar, wheat leaf segments, inoculated 2 days after application, compared to untreated, read-out: disease control
Summary of the method: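 Wheat cv. Kanzler leaf segments on agar, sprayed with diluted formulated compound, then spore-inoculated 2 days later. Kept at 20 °C, 75% rh, 12 h light/12 h dark; percent disease control versus untreated scored once untreated discs show disease, 5–7 days after application.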

[8] = test system: Puccinia recondita f. sp. tritici; experiment: Fungicidal activity against Puccinia recondita f. sp. tritici / wheat / leaf disc preventative (brown rust); assay type: in vivo; settings: foliar, wheat leaf segments, inoculated 1 day after application, compared to untreated, read-out: disease control
Summary of the method: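 Wheat leaf segments (cv. Kanzler) on agar sprayed with formulated compound in water, inoculated with spore suspension 1 day later. Incubated at 19° C, 75% rh, 12 h light/12 h dark; percent disease control versus untreated scored 7-9 days after application.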

Pyrenophora teres = experiment: Fungicidal activity against Pyrenophora teres / barley / leaf disc preventative (net blotch); assay type: in vivo; settings: foliar, barley leaf segments, inoculated 2 days after application, compared to untreated, read-out: disease control
Summary of the method: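 Barley leaf segments (cv. Hasso) on agar sprayed with formulated compound in water, then spore-inoculated 2 days later. Kept at 20 °C, 65% rh, 12 h light/dark; disease control versus untreated scored 5-7 days after application.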

[9] = test system: Thanatephorus cucumeris (Rhizoctonia solani); experiment: Fungicidal activity against Thanatephorus cucumeris (Rhizoctonia solani) / liquid culture (foot rot, damping-off); assay type: cell-based; settings: 3-4 days after application, read-out: disease control (inhibition of growth, photometrically)
Summary of the method: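 Fungal mycelia fragments from fresh liquid culture were mixed into potato dextrose broth and added to test compounds supplied in DMSO. Incubation was at 24° C. Growth inhibition was read photometrically 3-4 days after application.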

Alternaria solani = experiment: Fungicidal activity against Alternaria solani / tomato / leaf disc (early blight); assay type: in vivo; settings: foliar, tomato leaf disks, inoculated 2 days after application, compared to untreated, read-out: disease control
Experimental: Fungicidal Activity Against Alternaria solani/Tomato/Leaf Disc (Early Blight) Tomato leaf disks cv. Baby were placed on agar in multiwell plates (24-well format) and sprayed with the formulated test compound diluted in water. The leaf disks were inoculated with a spore suspension of the fungus 2 days after application. The inoculated leaf disks were incubated at 23° C./21° C.

melting point [°C] | Structure (SMILES) | pest or weed control at 200 ppm [1] [%] | inhibition at 200 ppm [2] [%] | inhibition at 200 ppm (Gaeumannomyces graminis) [%] | inhibition at 200 ppm [3] [%] | inhibition at 200 ppm [4] [%] | inhibition at 200 ppm [5] [%] | inhibition at 200 ppm [6] [%] | pest or weed control at 200 ppm [7] [%] | pest or weed control at 200 ppm [8] [%] | pest or weed control at 200 ppm (Pyrenophora teres) [%] | inhibition at 200 ppm [9] [%] | pest or weed control at 200 ppm (Alternaria solani) [%]
244 to 245 | c1ccc(Cc2cccc(-c3ncc4c(n3)CCOC4)n2)cc1 [Compound 2] | ≥ 80 | ≥ 80 | ≥ 80 | ≥ 80 | – | ≥ 80 | ≥ 80 | ≥ 80 | ≥ 80 | ≥ 80 | ≥ 80 | –
148 to 149 | Clc1cccc(Cc2cccc(-c3ncc4c(n3)CCOC4)n2)c1 [Compound 4] | ≥ 80 | ≥ 80 | ≥ 80 | ≥ 80 | ≥ 80 | ≥ 80 | ≥ 80 | ≥ 80 | ≥ 80 | ≥ 80 | ≥ 80 | –
132 to 133 | Cc1ccccc1Cc1cccc(-c2ncc3c(n2)CCOC3)n1 [Compound 6, 2-[6-(2-methylbenzyl)-pyridin-2-yl]-7,8-dihydro-5H-pyrano[4,3-d]pyrimidine] | ≥ 80 | ≥ 80 | ≥ 80 | ≥ 80 | ≥ 80 | ≥ 80 | ≥ 80 | ≥ 80 | ≥ 80 | ≥ 80 | – | ≥ 80
135 to 137 | COc1ccccc1Cc1cccc(-c2ncc3c(n2)CCOC3)n1 [Compound 7] | ≥ 80 | ≥ 80 | ≥ 80 | ≥ 80 | ≥ 80 | ≥ 80 | ≥ 80 | ≥ 80 | ≥ 80 | ≥ 80 | – | ≥ 80

More lines, now with the values behind:

Structure (SMILES) | melting point [°C] | pest or weed control at 200 ppm [1] [%] | inhibition at 200 ppm [2] [%] | inhibition at 200 ppm (Gaeumannomyces graminis) [%] | inhibition at 200 ppm [3] [%] | inhibition at 200 ppm [4] [%] | inhibition at 200 ppm [5] [%] | inhibition at 200 ppm [6] [%] | pest or weed control at 200 ppm [7] [%] | pest or weed control at 200 ppm [8] [%] | pest or weed control at 200 ppm (Pyrenophora teres) [%] | inhibition at 200 ppm [9] [%] | pest or weed control at 200 ppm (Alternaria solani) [%]
Clc1ccc(Cc2cccc(-c3ncc4c(n3)CCCC4)n2)cn1 [Compound 1, 2-[6-(6-chloropyridin-3-ylmethyl)-pyridin-2-yl]-5,6,7,8-tetrahydroquinazoline] | 115 to 120 | ≥ 80 | ≥ 80 | ≥ 80 | ≥ 80 | ≥ 80 | ≥ 80 | ≥ 80 | ≥ 80 | ≥ 80 | ≥ 80 | ≥ 80 | –
CC1(C)CCc2cnc(-c3cccc(Cc4ccccc4)n3)nc2C1 [Compound 11] | 226 to 228 | ≥ 80 | ≥ 80 | ≥ 80 | ≥ 80 | ≥ 80 | ≥ 80 | ≥ 80 | ≥ 80 | ≥ 80 | ≥ 80 | ≥ 80 | –
CC1(C)CCc2cnc(-c3cccc(Cc4cccc(C#N)c4)n3)nc2C1 [Compound 17] | 222 to 223 | – | ≥ 80 | ≥ 80 | ≥ 80 | ≥ 80 | ≥ 80 | ≥ 80 | ≥ 80 | – | ≥ 80 | ≥ 80 | –
CO/N=C1\CCc2nc(-c3cccc(Cc4ccccc4)n3)ncc2C1 [Compound 18] | 175 to 177 | ≥ 80 | ≥ 80 | ≥ 80 | ≥ 80 | – | ≥ 80 | ≥ 80 | ≥ 80 | ≥ 80 | ≥ 80 | ≥ 80 | –
CO[C@@H]1CCc2nc(-c3cccc(Cc4ccccc4)n3)ncc2C1 [Compound 25] | – | ≥ 80 | ≥ 80 | – | ≥ 80 | ≥ 80 | ≥ 80 | ≥ 80 | ≥ 80 | ≥ 80 | ≥ 80 | – | ≥ 80
Clc1ccccc1Cc1cccc(-c2ncc3c(n2)CCCCC3)n1 [Compound 33] | – | ≥ 80 | ≥ 80 | ≥ 80 | ≥ 80 | ≥ 80 | ≥ 80 | ≥ 80 | ≥ 80 | ≥ 80 | ≥ 80 | ≥ 80 | ≥ 80
CC(c1ccccc1)c1cccc(-c2ncc3c(n2)CC(C)(C)CC3)n1 (stereo not shown) [Compound 45] | 136 to 138 | – | ≥ 80 | ≥ 80 | ≥ 80 | ≥ 80 | ≥ 80 | ≥ 80 | ≥ 80 | – | ≥ 80 | ≥ 80 | –
